# Results as given in ChEMBL document CHEMBL4507319 (2021).
# Columns and labels:
# [1] = target: Aurora kinase B (Homo sapiens) (UniProt Q96GD4); experiment: Aurora-B(h) Eurofins kinase panel; conditions: Compound concentration 1.0 uM
# [2] = target: Tyrosine-protein kinase BTK (Homo sapiens) (UniProt Q06187); experiment: BTK(h) Eurofins kinase panel; conditions: Compound concentration 1.0 uM
# [3] = target: Calcium/calmodulin-dependent protein kinase type 1B (Homo sapiens) (UniProt Q6P2M8); experiment: CaMKIbeta(h) Eurofins kinase panel; conditions: Compound concentration 1.0 uM
# [4] = target: CDK18/Cyclin Y (Homo sapiens) (UniProt Q07002+Q8ND76); experiment: CDK18/cyclinY(h) Eurofins kinase panel; assay type: protein-complex assay; conditions: Compound concentration 1.0 uM
# [5] = target: Mast/stem cell growth factor receptor Kit (Homo sapiens) (UniProt P10721); experiment: cKit(h) Eurofins kinase panel; conditions: Compound concentration 1.0 uM
# [6] = target: Dual specificity tyrosine-phosphorylation-regulated kinase 1B (Homo sapiens) (UniProt Q9Y463); experiment: DYRK1B(h) Eurofins kinase panel; conditions: Compound concentration 1.0 uM
# [7] = target: Epidermal growth factor receptor (Homo sapiens) (UniProt P00533); experiment: EGFR(h) Eurofins kinase panel; conditions: Compound concentration 1.0 uM
# Sequence of Epidermal growth factor receptor (Homo sapiens) (P00533 whole entry): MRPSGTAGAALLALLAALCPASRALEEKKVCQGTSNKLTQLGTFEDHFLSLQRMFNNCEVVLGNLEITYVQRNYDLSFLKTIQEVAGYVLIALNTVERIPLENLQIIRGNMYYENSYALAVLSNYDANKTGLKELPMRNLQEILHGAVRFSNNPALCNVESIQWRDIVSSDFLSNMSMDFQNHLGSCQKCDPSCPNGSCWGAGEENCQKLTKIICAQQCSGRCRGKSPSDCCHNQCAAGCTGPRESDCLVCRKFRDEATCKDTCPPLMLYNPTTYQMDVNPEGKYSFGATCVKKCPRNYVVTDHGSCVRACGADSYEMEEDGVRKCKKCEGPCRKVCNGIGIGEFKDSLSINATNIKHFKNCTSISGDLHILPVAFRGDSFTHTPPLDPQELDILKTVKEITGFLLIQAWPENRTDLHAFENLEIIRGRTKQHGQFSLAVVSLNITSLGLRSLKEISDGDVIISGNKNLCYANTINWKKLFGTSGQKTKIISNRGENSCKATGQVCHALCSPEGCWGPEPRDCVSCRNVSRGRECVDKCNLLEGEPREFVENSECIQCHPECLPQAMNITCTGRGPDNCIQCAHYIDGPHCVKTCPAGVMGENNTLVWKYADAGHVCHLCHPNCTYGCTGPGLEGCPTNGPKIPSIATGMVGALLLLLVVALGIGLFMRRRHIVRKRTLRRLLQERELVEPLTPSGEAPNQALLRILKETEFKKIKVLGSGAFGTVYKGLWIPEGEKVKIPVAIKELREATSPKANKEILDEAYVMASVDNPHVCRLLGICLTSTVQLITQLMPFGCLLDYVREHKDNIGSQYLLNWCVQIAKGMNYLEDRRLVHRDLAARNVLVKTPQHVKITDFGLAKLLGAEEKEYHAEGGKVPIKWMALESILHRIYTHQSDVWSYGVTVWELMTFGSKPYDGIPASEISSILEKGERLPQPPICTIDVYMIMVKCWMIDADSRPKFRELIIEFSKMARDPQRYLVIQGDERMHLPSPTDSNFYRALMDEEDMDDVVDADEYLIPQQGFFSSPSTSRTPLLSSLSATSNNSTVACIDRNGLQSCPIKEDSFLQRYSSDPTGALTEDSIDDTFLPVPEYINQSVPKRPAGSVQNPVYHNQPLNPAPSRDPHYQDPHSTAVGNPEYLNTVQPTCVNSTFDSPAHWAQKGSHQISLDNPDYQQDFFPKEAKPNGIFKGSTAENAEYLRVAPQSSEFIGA
# [8] = target: Ephrin type-A receptor 4 (Homo sapiens) (UniProt P54764); experiment: EphA4(h) Eurofins kinase panel; conditions: Compound concentration 1.0 uM
# [9] = target: Receptor tyrosine-protein kinase erbB-4 (Homo sapiens) (UniProt Q15303); experiment: ErbB4(h) Eurofins kinase panel; conditions: Compound concentration 1.0 uM
# Sequence of Receptor tyrosine-protein kinase erbB-4 (Homo sapiens) (Q15303 whole entry): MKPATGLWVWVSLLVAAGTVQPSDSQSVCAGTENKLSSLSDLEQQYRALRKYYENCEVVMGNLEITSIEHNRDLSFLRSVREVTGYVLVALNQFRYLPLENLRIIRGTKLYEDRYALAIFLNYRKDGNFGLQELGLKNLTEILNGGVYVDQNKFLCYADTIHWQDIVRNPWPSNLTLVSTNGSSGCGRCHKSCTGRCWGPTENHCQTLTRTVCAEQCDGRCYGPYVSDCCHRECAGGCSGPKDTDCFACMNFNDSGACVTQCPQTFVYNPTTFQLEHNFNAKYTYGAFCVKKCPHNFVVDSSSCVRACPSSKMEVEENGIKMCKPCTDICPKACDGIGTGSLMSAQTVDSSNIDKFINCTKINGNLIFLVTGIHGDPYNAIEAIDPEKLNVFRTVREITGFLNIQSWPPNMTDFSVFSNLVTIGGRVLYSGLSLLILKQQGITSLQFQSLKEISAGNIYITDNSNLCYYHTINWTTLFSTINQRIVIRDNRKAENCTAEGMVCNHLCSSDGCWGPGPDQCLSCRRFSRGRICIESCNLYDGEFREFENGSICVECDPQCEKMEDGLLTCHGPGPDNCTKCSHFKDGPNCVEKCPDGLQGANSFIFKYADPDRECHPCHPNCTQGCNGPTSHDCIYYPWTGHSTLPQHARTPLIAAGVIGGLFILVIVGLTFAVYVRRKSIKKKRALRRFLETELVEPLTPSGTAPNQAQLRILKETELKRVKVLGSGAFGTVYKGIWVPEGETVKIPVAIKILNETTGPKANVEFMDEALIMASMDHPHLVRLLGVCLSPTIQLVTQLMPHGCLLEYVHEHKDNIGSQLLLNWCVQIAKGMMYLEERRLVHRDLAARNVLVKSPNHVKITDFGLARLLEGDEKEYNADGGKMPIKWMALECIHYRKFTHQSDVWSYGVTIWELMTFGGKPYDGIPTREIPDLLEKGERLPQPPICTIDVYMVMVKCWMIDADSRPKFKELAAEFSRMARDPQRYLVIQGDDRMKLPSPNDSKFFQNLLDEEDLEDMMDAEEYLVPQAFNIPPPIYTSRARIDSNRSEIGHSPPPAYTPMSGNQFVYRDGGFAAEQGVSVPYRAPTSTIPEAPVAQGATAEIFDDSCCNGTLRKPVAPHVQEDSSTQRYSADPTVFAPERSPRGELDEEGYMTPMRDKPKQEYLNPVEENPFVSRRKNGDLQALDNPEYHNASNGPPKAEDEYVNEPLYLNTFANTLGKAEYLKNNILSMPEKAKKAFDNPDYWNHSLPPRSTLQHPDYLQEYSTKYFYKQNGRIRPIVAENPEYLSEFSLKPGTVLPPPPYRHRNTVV
# [10] = target: Tyrosine-protein kinase Fes/Fps (Homo sapiens) (UniProt P07332); experiment: Fes(h) Eurofins kinase panel; conditions: Compound concentration 1.0 uM
# [11] = target: Tyrosine-protein kinase HCK (Homo sapiens) (UniProt P08631); experiment: Hck(h) Eurofins kinase panel; conditions: Compound concentration 1.0 uM
# Sequence of Tyrosine-protein kinase HCK (Homo sapiens) (P08631 2-526 limits assumed): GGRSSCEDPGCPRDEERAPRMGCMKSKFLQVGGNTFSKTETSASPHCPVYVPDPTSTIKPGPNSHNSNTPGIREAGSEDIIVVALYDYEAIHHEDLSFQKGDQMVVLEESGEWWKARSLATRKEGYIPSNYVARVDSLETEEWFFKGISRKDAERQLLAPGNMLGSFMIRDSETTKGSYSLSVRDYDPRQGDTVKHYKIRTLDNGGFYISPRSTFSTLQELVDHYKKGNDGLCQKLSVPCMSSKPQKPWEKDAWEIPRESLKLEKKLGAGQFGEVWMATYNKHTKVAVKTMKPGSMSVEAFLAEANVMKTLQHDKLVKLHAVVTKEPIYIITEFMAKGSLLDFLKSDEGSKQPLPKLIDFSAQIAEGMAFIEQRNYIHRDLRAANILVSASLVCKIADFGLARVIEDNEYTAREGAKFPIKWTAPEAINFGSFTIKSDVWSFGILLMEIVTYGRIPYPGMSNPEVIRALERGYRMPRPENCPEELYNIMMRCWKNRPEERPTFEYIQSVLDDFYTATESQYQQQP
# [12] = target: Interleukin-1 receptor-associated kinase 1 (Homo sapiens) (UniProt P51617); experiment: IRAK1(h) Eurofins kinase panel; conditions: Compound concentration 1.0 uM
# [13] = target: Tyrosine-protein kinase Lyn (Homo sapiens) (UniProt P07948); experiment: Lyn(h) Eurofins kinase panel; conditions: Compound concentration 1.0 uM
# Sequence of Tyrosine-protein kinase Lyn (Homo sapiens) (P07948 2-512 limits assumed): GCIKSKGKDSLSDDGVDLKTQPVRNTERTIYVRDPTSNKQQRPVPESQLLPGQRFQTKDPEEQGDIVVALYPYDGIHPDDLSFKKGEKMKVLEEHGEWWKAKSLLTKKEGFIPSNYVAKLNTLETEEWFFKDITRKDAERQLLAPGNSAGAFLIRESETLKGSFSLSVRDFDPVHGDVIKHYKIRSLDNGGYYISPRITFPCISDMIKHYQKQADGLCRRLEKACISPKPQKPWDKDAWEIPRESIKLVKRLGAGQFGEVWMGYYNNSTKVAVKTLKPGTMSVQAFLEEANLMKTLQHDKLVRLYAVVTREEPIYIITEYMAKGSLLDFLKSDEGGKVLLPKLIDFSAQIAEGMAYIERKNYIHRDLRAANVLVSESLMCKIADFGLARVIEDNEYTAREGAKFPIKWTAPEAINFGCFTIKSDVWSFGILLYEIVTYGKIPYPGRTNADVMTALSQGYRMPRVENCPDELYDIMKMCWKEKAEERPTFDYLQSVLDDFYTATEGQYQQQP
# [14] = target: MAP kinase-activated protein kinase 3 (Homo sapiens) (UniProt Q16644); experiment: MAPKAP-K3(h) Eurofins kinase panel; conditions: Compound concentration 1.0 uM
# Sequence of MAP kinase-activated protein kinase 3 (Homo sapiens) (Q16644 whole entry, looked up): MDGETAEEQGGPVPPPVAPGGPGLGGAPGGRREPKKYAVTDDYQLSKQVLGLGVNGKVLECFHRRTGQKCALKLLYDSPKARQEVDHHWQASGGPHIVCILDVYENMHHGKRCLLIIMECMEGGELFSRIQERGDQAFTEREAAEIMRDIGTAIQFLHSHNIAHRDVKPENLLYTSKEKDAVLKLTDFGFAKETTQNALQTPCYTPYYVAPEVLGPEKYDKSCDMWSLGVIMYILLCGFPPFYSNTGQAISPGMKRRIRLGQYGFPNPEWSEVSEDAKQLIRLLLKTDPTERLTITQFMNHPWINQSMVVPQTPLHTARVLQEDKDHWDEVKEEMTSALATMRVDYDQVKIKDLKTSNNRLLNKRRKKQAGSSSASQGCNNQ
# [15] = target: Dual specificity mitogen-activated protein kinase kinase 1 (Homo sapiens) (UniProt Q02750); experiment: MEK1(h) Eurofins kinase panel; conditions: Compound concentration 1.0 uM
# Sequence of Dual specificity mitogen-activated protein kinase kinase 1 (Homo sapiens) (Q02750 whole entry): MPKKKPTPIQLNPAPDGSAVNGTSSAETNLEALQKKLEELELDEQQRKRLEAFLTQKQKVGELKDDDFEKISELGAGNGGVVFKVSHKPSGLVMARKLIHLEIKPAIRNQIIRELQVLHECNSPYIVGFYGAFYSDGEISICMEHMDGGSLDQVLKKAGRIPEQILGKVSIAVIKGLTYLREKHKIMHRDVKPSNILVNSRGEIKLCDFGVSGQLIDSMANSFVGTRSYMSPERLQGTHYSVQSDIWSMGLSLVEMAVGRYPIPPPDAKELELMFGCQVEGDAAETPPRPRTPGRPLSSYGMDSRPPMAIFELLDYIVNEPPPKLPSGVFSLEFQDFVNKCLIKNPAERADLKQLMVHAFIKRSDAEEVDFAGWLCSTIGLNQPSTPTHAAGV
# [16] = target: Myosin light chain kinase 2, skeletal/cardiac muscle (Homo sapiens) (UniProt Q9H1R3); experiment: MYLK2(h) Eurofins kinase panel; conditions: Compound concentration 1.0 uM
# [17] = target: T1, Serine/threonine-protein kinase Nek3 (Homo sapiens) (UniProt P51956); experiment: NEK3(h) Eurofins kinase panel; conditions: Compound concentration 1.0 uM
# T1 sequence (whole entry): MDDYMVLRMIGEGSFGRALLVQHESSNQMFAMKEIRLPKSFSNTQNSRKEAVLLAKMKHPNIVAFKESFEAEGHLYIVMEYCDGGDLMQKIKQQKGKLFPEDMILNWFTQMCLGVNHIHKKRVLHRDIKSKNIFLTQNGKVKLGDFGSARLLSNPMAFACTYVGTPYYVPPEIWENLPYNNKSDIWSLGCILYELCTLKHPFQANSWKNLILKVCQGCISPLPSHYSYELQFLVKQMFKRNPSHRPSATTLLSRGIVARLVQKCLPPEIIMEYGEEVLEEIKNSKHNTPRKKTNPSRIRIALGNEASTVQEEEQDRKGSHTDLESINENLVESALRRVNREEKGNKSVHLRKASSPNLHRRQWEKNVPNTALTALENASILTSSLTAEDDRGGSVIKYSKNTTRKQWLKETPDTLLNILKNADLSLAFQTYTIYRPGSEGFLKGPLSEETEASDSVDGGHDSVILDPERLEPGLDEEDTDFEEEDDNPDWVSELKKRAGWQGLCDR
# [18] = target: Serine/threonine-protein kinase Nek7 (Homo sapiens) (UniProt Q8TDX7); experiment: NEK7(h) Eurofins kinase panel; conditions: Compound concentration 1.0 uM
# [19] = target: T2, Serine/threonine-protein kinase Nek11 (Homo sapiens) (UniProt Q8NG66); experiment: NEK11(h) Eurofins kinase panel; conditions: Compound concentration 1.0 uM
# T2 sequence (whole entry): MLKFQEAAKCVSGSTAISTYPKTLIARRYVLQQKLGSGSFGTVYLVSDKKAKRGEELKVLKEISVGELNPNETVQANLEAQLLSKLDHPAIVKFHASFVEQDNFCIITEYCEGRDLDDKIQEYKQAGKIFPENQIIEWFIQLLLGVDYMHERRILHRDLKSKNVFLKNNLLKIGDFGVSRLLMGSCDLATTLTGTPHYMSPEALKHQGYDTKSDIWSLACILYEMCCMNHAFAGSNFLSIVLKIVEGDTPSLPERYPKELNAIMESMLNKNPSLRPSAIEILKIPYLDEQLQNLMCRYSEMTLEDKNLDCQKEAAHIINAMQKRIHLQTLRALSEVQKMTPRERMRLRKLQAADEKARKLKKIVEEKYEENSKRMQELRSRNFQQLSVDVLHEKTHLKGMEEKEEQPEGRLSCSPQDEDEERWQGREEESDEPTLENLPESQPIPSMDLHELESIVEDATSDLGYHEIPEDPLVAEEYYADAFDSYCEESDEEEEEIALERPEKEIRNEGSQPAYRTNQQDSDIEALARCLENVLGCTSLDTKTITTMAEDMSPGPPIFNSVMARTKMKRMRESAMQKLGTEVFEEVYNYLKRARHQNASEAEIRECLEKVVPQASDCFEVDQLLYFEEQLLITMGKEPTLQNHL
# [20] = target: cAMP-dependent protein kinase catalytic subunit alpha (Homo sapiens) (UniProt P17612); experiment: PKA(h) Eurofins kinase panel; conditions: Compound concentration 1.0 uM
# [21] = target: Serine/threonine-protein kinase PLK1 (Homo sapiens) (UniProt P53350); experiment: Plk1(h) Eurofins kinase panel; conditions: Compound concentration 1.0 uM
# [22] = target: Tyrosine-protein kinase FRK (Homo sapiens) (UniProt P42685); experiment: PTK5(h) Eurofins kinase panel; conditions: Compound concentration 1.0 uM
# [23] = target: Rho-associated protein kinase 1 (Homo sapiens) (UniProt Q13464); experiment: ROCK-I(h) Eurofins kinase panel; conditions: Compound concentration 1.0 uM
# [24] = target: Serine/threonine-protein kinase 33 (Homo sapiens) (UniProt Q9BYT3); experiment: STK33(h) Eurofins kinase panel; conditions: Compound concentration 1.0 uM
# [25] = target: Tyrosine-protein kinase Yes (Homo sapiens) (UniProt P07947); experiment: Yes(h) Eurofins kinase panel; conditions: Compound concentration 1.0 uM
# Ramos = experiment: Ramos cell line Proliferation assay; assay type: functional, Homo sapiens; conditions: time 3 day
# Daudi = experiment: Daudi cell line Proliferation assay; assay type: functional, Homo sapiens; conditions: time 3 day
# SNU-16 = experiment: Snu16 cell line Proliferation assay; assay type: functional, Homo sapiens; conditions: time 3 day
# Sequence of Tyrosine-protein kinase BTK (Homo sapiens) (Q06187 whole entry): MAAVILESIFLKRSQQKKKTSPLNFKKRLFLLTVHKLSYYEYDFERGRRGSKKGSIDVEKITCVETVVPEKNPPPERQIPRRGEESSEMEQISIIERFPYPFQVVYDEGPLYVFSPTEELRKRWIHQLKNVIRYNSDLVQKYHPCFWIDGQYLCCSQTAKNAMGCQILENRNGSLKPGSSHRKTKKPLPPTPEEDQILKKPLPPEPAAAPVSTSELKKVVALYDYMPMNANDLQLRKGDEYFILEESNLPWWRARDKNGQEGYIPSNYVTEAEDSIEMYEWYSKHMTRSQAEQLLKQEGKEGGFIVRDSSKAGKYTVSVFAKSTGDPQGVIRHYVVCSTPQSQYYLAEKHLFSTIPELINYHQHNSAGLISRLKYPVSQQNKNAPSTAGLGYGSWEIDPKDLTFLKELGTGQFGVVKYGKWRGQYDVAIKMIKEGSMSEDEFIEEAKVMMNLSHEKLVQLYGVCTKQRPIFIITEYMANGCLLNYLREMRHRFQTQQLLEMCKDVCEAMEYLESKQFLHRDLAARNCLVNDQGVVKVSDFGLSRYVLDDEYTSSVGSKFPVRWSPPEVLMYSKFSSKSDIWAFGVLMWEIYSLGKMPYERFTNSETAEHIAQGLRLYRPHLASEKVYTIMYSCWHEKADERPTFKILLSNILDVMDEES
structure (smiles),measurement,setting,value
CCc1ccccc1C(=O)Nc1n[nH]c2c(C)c(F)c(C3C(C#N)=C(C)N(C)C(C)=C3C#N)cc12 [BAY-3827],% residual kinase activity,[1],76%
same,% residual kinase activity,[2],96%
same,% residual kinase activity,[3],91%
same,% residual kinase activity,[4],106%
same,% residual kinase activity,[5],101%
same,% residual kinase activity,[6],99%
same,% residual kinase activity,[7],107%
same,% residual kinase activity,[8],106%
same,% residual kinase activity,[9],101%
same,% residual kinase activity,[10],89%
same,% residual kinase activity,[11],88%
same,% residual kinase activity,[12],99%
same,% residual kinase activity,[13],110%
same,% residual kinase activity,[14],106%
same,% residual kinase activity,[15],90%
same,% residual kinase activity,[16],89%
same,% residual kinase activity,[17],102%
same,% residual kinase activity,[18],112%
same,% residual kinase activity,[19],103%
same,% residual kinase activity,[20],103%
same,% residual kinase activity,[21],102%
same,% residual kinase activity,[22],91%
same,% residual kinase activity,[23],104%
same,% residual kinase activity,[24],55%
same,% residual kinase activity,[25],90%
same,Cell Proliferation IC50,Ramos,12.1 µM
same,Cell Proliferation IC50,Daudi,22.9 µM
same,Cell Proliferation IC50,SNU-16,11.6 µM
